Results published in ChEMBL document CHEMBL5512665, “A CARM1 Inhibitor Potently Suppresses Breast Cancer Both In Vitro and In Vivo” (J Med Chem, 2024).
Activity calls are given as the source filed them. The rule behind the calls is not given here.

Tests used:
[1] = Toxicity in BALB/C mouse xenografted with human MDA-MB-231 cells assessed as change in lung morphology at 50 mg/kg,ip administrated daily for 11 days; format: organism-based; conditions: in vivo, 264 h, time 11 day
[2] = Toxicity in BALB/C mouse xenografted with human MCF7 cells assessed as change in kidney morphology at 50 mg/kg,ip administrated every other day for 29 days; format: organism-based; conditions: in vivo, 696 h, time 29 day
[3] = Toxicity in BALB/C mouse xenografted with human MCF7 cells assessed as change in body weight at 50 mg/kg,ip administrated every other day for 29 days; format: organism-based; conditions: in vivo, 696 h, time 29 day
MCF7 [4] = assay: Synergistic antitumor activity against human MCF7 cells xenografted in BALB/C mouse assessed as reduction in tumor size at 25 mg/kg,ip administrated every other day for 15 days in presence of 5 mg/kg tamoxifen oral administration; format: functional, organism-based; conditions: time 15.0 day
4T1 [5] = assay: Potentiation of etoposide induced antitumor activity against mouse 4T1 cells implanted in BALB/C mouse assessed as upregulation of IFNalpha gene expression at 25 mg/kg,ip administrated daily for 12 days in presence of 8 mg/kg etoposide administration by RT-qPCR analysis; format: functional, organism-based; conditions: time 12.0 day
[6] = Toxicity in BALB/C mouse xenografted with human MDA-MB-231 cells assessed as change in liver morphology at 50 mg/kg,ip administrated daily for 11 days; format: organism-based; conditions: in vivo, 264 h, time 11 day
4T1 [7] = assay: Antitumor activity against mouse 4T1 cells implanted in BALB/C mouse assessed as upregulation of IFIT1 gene expression at 25 mg/kg,ip administrated daily for 14 days by RT-qPCR analysis; format: functional, organism-based; conditions: time 14.0 day
MCF7 [8] = assay: Antiproliferative activity against human MCF7 cells with siRNA mediated CARM1 knockdown assessed as reduction in cell growth at 5 uM incubated for 7 days by celltiter 96 aqueous one solution cell proliferation assay; format: functional, cell-based; conditions: time 7.0 day
[9] = Toxicity in BALB/C mouse xenografted with human MCF7 cells assessed as change in liver morphology at 25 mg/kg,ip administrated every other day for 29 days; format: organism-based; conditions: in vivo, 696 h, time 29 day
4T1 [10] = assay: Antitumor activity against mouse 4T1 cells implanted in BALB/C mouse assessed as downregulation of FOXC1 gene expression at 25 mg/kg,ip administrated daily for 14 days by RT-qPCR analysis; format: functional, organism-based; conditions: time 14.0 day
4T1 [11] = assay: Antitumor activity against mouse 4T1 cells implanted in BALB/C mouse assessed as downregulation of N-Myc gene expression at 25 mg/kg,ip administrated daily for 14 days by RT-qPCR analysis; format: functional, organism-based; conditions: time 14.0 day
MCF7 [12] = assay: Synergistic antiproliferative activity against human MCF7 cells assessed as inhibition of colony formation at 2.5 uM incubated for 10 days in presence of tamoxifen by crystal violet staining based analysis; format: functional, cell-based; conditions: time 10.0 day
[13] = Toxicity in BALB/C mouse xenografted with human MDA-MB-231 cells assessed as change in heart morphology at 50 mg/kg,ip administrated daily for 11 days; format: organism-based; conditions: in vivo, 264 h, time 11 day
MCF7 [14] = assay: Synergistic antitumor activity against human MCF7 cells xenografted in BALB/C mouse assessed as downregulation of C-Myc gene expression at 25 mg/kg,ip administrated every other day for 15 days in presence of 5 mg/kg tamoxifen oral administration by RT-qPCR analysis; format: functional, organism-based; conditions: time 15.0 day
[15] = Toxicity in BALB/C mouse xenografted with human MDA-MB-231 cells assessed as change in lung morphology at 25 mg/kg,ip administrated daily for 11 days; format: organism-based; conditions: in vivo, 264 h, time 11 day
MCF7 [16] = assay: Antitumor activity against human MCF7 cells xenografted in BALB/C mouse assessed as downregulation of TFF1 gene expression at 50 mg/kg,ip administrated every other day for 29 days by RT-qPCR analysis; format: functional, organism-based; conditions: time 29.0 day
[17] = Toxicity in BALB/C mouse xenografted with human MDA-MB-231 cells assessed as change in kidney morphology at 25 mg/kg,ip administrated daily for 11 days; format: organism-based; conditions: in vivo, 264 h, time 11 day
MCF7 [18] = assay: Potentiation of etoposide induced antiproliferative activity against human MCF7 cells assessed as inhibition of cell growth at 2.5 uM incubated for 7 days in presence of etoposide by celltiter 96 aqueous one solution cell proliferation assay; format: functional, cell-based; conditions: time 7.0 day
4T1 [19] = assay: Antitumor activity against mouse 4T1 cells implanted in BALB/C mouse assessed as downregulation of C-Myc gene expression at 25 mg/kg,ip administrated daily for 14 days by RT-qPCR analysis; format: functional, organism-based; conditions: time 14.0 day
[20] = Toxicity in BALB/C mouse xenografted with human MDA-MB-231 cells assessed as change in body weight at 25 mg/kg,ip administrated daily for 11 days; format: organism-based; conditions: in vivo, 264 h, time 11 day
MCF7 [21] = assay: Synergistic antitumor activity against human MCF7 cells xenografted in BALB/C mouse assessed as downregulation of TFF1 gene expression at 25 mg/kg,ip administrated every other day for 15 days in presence of 5 mg/kg tamoxifen oral administration by RT-qPCR analysis; format: functional, organism-based; conditions: time 15.0 day
[22] = Toxicity in BALB/C mouse implanted with mouse 4T1 cells assessed as change in lung morphology at 50 mg/kg,ip administrated daily for 14 days; format: organism-based; conditions: in vivo, 336 h, time 14 day
[23] = Toxicity in BALB/C mouse xenografted with human MCF7 cells assessed as change in spleen morphology at 25 mg/kg,ip administrated every other day for 29 days; format: organism-based; conditions: in vivo, 696 h, time 29 day
4T1 [24] = assay: Antitumor activity against mouse 4T1 cells implanted in BALB/C mouse assessed as inhibition of tumor size at 25 mg/kg,ip administrated daily for 14 days; format: functional, organism-based; conditions: time 14.0 day
4T1 [25] = assay: Antitumor activity against mouse 4T1 cells implanted in BALB/C mouse assessed as upregulation of IFIT1 gene expression at 50 mg/kg,ip administrated daily for 14 days by RT-qPCR analysis; format: functional, organism-based; conditions: time 14.0 day
[26] = Toxicity in BALB/C mouse xenografted with human MCF7 cells assessed as change in liver morphology at 50 mg/kg,ip administrated every other day for 29 days; format: organism-based; conditions: in vivo, 696 h, time 29 day
4T1 [27] = assay: Antitumor activity against mouse 4T1 cells implanted in BALB/C mouse assessed as upregulation of IFNalpha gene expression at 50 mg/kg,ip administrated daily for 14 days by RT-qPCR analysis; format: functional, organism-based; conditions: time 14.0 day
[28] = Toxicity in BALB/C mouse xenografted with human MDA-MB-231 cells assessed as change in heart morphology at 25 mg/kg,ip administrated daily for 11 days; format: organism-based; conditions: in vivo, 264 h, time 11 day
MCF7 [29] = assay: Synergistic antiproliferative activity against human MCF7 cells assessed as downregulation of CCND1 gene expression at 2.5 uM incubated for 6 hrs in presence of fulvestrant by RT-qPCR analysis; format: functional, cell-based
4T1 [30] = assay: Antitumor activity against mouse 4T1 cells implanted in BALB/C mouse assessed as downregulation of TFF1 gene expression at 25 mg/kg,ip administrated daily for 14 days by RT-qPCR analysis; format: functional, organism-based; conditions: time 14.0 day
4T1 [31] = assay: Antitumor activity against mouse 4T1 cells implanted in BALB/C mouse assessed as increase in infiltration of CD8 positive T cells at 50 mg/kg,ip administrated daily for 14 days by immunohistochemical staining based analysis; format: functional, organism-based; conditions: time 14.0 day
4T1 [32] = assay: Antitumor activity against mouse 4T1 cells implanted in BALB/C mouse assessed as increase in infiltration of CD8 positive T cells at 25 mg/kg,ip administrated daily for 14 days by immunohistochemical staining based analysis; format: functional, organism-based; conditions: time 14.0 day
MCF7 [33] = assay: Synergistic antiproliferative activity against human MCF7 cells assessed as inhibition of colony formation at 2.5 uM incubated for 10 days in presence of fulvestrant by crystal violet staining based analysis; format: functional, cell-based; conditions: time 10.0 day

Q: What does the source list for `Cc1ccc(-c2nc(N3CCN(CCN(C)C)CC3)ncc2-c2ccoc2)cc1.Cl.Cl`?
A: Activity [1]: Non-Toxic; Activity [2]: Non-Toxic; Activity [3]: Non-Toxic; Activity (MCF7 [4]): Active; Activity (4T1 [5]): Active; Activity [6]: Non-Toxic; Activity (4T1 [7]): Active; Activity (MCF7 [8]): inactive; Activity [9]: Non-Toxic; Activity (4T1 [10]): Active; Activity (4T1 [11]): Active; Activity (MCF7 [12]): Active; Activity [13]: Non-Toxic; Activity (MCF7 [14]): Active; Activity [15]: Non-Toxic; Activity (MCF7 [16]): Active; Activity [17]: Non-Toxic; Activity (MCF7 [18]): Active; Activity (4T1 [19]): Active; Activity [20]: Non-Toxic; Activity (MCF7 [21]): Active; Activity [22]: Non-Toxic; Activity [23]: Non-Toxic; Activity (4T1 [24]): Active; Activity (4T1 [25]): Active; Activity [26]: Non-Toxic; Activity (4T1 [27]): Active; Activity [28]: Non-Toxic; Activity (MCF7 [29]): Active; Activity (4T1 [30]): Active; Activity (4T1 [31]): Active; Activity (4T1 [32]): Active; Activity (MCF7 [33]): Active
